Experimental data taken from patent US7960614B2, “Plant transformation and selection” (Arborgen, LLC, priority 2003, dated 2011).

Key:
loblolly cell lines = assay: asa2 (pWVC33) selection on Geneticin, 5MT or AMT, PCR check (Example 32); assay type: cell-based, Pinus taeda; conditions: Geneticin 15 mg/L with casein hydrolysate, 5MT or AMT 30 mg/L with AA4; for PCR confirmed positive (number of lines): of 12, 8, 22 lines PCR tested
Protocol: Two loblolly cell lines were prepared for transformation using the method of Example 28, and co-cultivated with Agrobacterium tumefaciens transformed with pWVC33 (FIG. 7) as described in Example 28. Following eradication of Agrobacterium, each cell line was equally divided onto 6 plates each of 5 different selection media containing either casein hydrolysate and Geneticin at 15 mg/L, or amino acid mixture AA4 and either 5-methyltryptophan (5MT) at 30 or 50 mg/L or […] (AMT) at 30 or 50 mg/L. The results are show in FIG. 12. Putatively transformed sublines grow on Geneticin-containing plates and on both selection treatments where 30 mg/L of the methylated tryptophan selective analog was incorporated.

E. grandis clone IP1 = assay: Geneticin selection of NPTII transformants, GUS staining of resistant shoot lines; assay type: cell-based, Eucalyptus grandis; conditions: 8 weeks
Protocol: (Arabidopsis ActinII.:GUSINT, constitutive::NPTII). As described in Example 4, leaf explants from E. grandis clone IP1 were pre-cultured on a pre-culture medium comprising auxin and an Agrobacterium inducer. The explants were transformed with Agrobacterium and co-cultivated for 3 days on a pre-culture medium with auxin enrichment (IAA at 2 mg/l, instead of 0.1 mg/l NAA in standard regeneration medium) and acetosyringone (250 μM). Then the explants were transferred to Euc Regeneration medium supplemented with 400 mg/l timentin for 4 days. The explants were then transferred to selection medium containing geneticin (30 or 40 mg/l geneticin). After 8 weeks on selection medium, samples of geneticin-resistant shoot cultures in the early developmental stage were collected and stained with x-gluc for GUS expression.

[1] = system: Eucalyptus grandis x urophylla Clone IPB1; assay: Geneticin selection of NPTII transformants, GUS staining of resistant calli; assay type: cell-based; conditions: about 10 weeks
Protocol: Before transforming, the explants were pre-cultured for 4 days on a medium having auxin enrichment (IAA at 2 mg/l instead of 0.1 mg/l NAA in standard regeneration medium) and acetosyringone (250 μM). As described in Example 6, the explants were infected with Agrobacterium, co-cultivated on the same medium for 3 days, and then transferred to a regeneration medium supplemented with 400 mg/l timentin for 4 days. Then, the explants were transferred to a selection medium containing geneticin instead of an herbicide selection agent.
The transformants were placed on geneticin selection medium containing geneticin (either 20 or 30 mg/l). Instead of the 3- or 4-week transfer cycles used with an herbicide selection medium, the explants were transferred bi-weekly to fresh geneticin medium. After about 10 weeks of growth on geneticin selection medium, samples of geneticin-resistant calli were collected and stained with x-gluc for GUS expression, as described in Example 7. The following data summarizes GUS expression in geneticin-selected transformants.

[2] = system: E. camaldulensis clone C9; assay: Geneticin selection of NPTII transformants, GUS staining of resistant shoot lines; assay type: cell-based, Eucalyptus camaldulensis; conditions: 8 weeks selection
Protocol: Similar to the methods disclosed in Example 16, E. camaldulensis clone C9 was transformed with GV2260 harboring p35SGUSINT. Following regeneration, the explants were transferred to a selection medium containing geneticin (30, 40, 50, or 60 mg/l geneticin). For geneticin at levels of 30 and 50 mg/l, additional sets of explants were pre-cultured for 1 day. After 8 weeks on selection medium, samples of geneticin-resistant shoot cultures in the early developmental stage were collected and stained with x-gluc for GUS expression.

[3] = system: Loblolly pine (Pinus taeda) and hybrid pine (P. taeda×P. rigida) embryogenic cell lines; assay: Selection of co-bombarded (als + nptII) pine embryogenic cells on Geneticin or Oust; assay type: cell-based
Text: This example describes the selection of genetically transformed pine, using a selectable marker encoding ALS on selection media containing a sulfonylurea herbicide, at a level sufficient for selection in model plants. In some experiments, including the one described in the following example, a vector that would express the als gene in the plant tissue was co-bombarded into the cells with a vector that would express the nptII gene in the plant tissue, and the co-bombarded cells were then divided into two groups and placed onto selection medium containing either a sulfonylurea herbicide or Geneticin, so that the frequency with which transformants are selected on Geneticin could be compared with the frequency of selection on herbicide.
Twenty identical replicates from the suspension cells of each of these three pine lines were prepared for gene transfer according to the method described in U.S. Pat. No. 6,518,485. Polyester membrane supports of a defined weight were sterilized by autoclaving and placing in separate sterile Buchner funnels, and approximately 1.5 ml of uniform pine embryogenic suspension at SCV 30 was pipetted onto each support such that the embryogenic tissue was evenly distributed over its surface. […]

[4] = system: loblolly pine and loblolly x pitch pine hybrid embryogenic lines; assay: Growth of pine embryogenic lines on Oust with and without casein hydrolysate (FIG. 9); assay type: cell-based, Pinus taeda; loblolly x pitch pine hybrid; conditions: Oust at 0, 10, 20, 40, and 80 nM, DCR2 with and without casein hydrolysate, twelve weeks
Protocol: Six embryogenic lines, two each from three different families (two genetically diverse loblolly pine families and a family of a loblolly x pitch pine hybrid), were evaluated. Uniform suspension cultures from each of the genetically different tissue culture lines were established as described in Example 26. Three identical replicates from the suspension cells of each of these six lines were plated as described in Example 26 on each of ten formulations of DCR2 medium, namely with and without casein hydrolysate, and containing the herbicide Oust at 0, 10, 20, 40, and 80 nM. The plates were sealed and incubated under the same conditions used for pre-experimental initiation, maintenance and selection steps in Example 26. Every three weeks the culture was transferred to fresh medium of the same formulation as previously provided, following weighing under sterile conditions of the tissue on the polyester support.

E. dunnii clone DUN00001 = assay: Shoot regeneration from Agrobacterium-inoculated internodal explants, zeatin/NAA optimisation; assay type: cell-based, Eucalyptus dunnii
Protocol: This example teaches a method to optimize the levels of growth regulators for shoot regeneration from the recalcitrant commercial E. dunnii clone DUN00001 or other recalcitrant clones. Internodal explants are prepared as described in Example 1 and are inocultated with Agrobacterium as described in Example 5. Following co-cultivation, transformed shoot clumps are transferred to a shoot regeneration medium. […] To optimize the auxin and cytokinin concentrations in the shoot regeneration media, several combinations of hormones were evaluated as a function of the production of elongated shoots. […] During the initial screening, the zeatin levels were 10, 1, and 0.1 mg/l and the NAA levels were 0.01, 0.1 and 1 mg/l. […] The following data summarize the attempt to optimize the level of zeatin and NAA.

For `CC(c1c[nH]c2ccccc12)[C@H](N)C(=O)O` (stereo partly drawn) [AMT30, β-methyltryptophan], the “False positive Frequency” value (loblolly cell lines) was 0.09 and the “PCR confirmed positive (number of lines)” value (loblolly cell lines) was 20.
For `CN[C@@H]1[C@@H](O)[C@@H](O[C@@H]2[C@@H](O)[C@H](O[C@H]3O[C@H]([C@@H](C)O)[C@@H](O)[C@H](O)[C@H]3N)[C@@H](N)C[C@H]2N)OC[C@]1(C)O` [Geneticin], the “False positive Frequency” value (loblolly cell lines) was 0.08, the “PCR confirmed positive (number of lines)” value (loblolly cell lines) was 11 and the “% GUS^+ Shoots” value (E. grandis clone IP1; explant source rooted plants, Geneticin 30 mg/l) was 0%. For the same molecule, the “No. GUS^+ Shoot Lines” value (E. grandis clone IP1; explant source rooted plants, Geneticin 30 mg/l, 1 line stained) was 0, the “% GUS^+ Shoots” value (E. grandis clone IP1; explant source shoot cluster, Geneticin 30 mg/l) was 50% and the “No. GUS^+ Shoot Lines” value (E. grandis clone IP1; explant source shoot cluster, Geneticin 30 mg/l, 16 lines stained) was 8. The “% GUS^+ Shoots” value (E. grandis clone IP1; explant source shoot cluster, Geneticin 40 mg/l) was 57%, the “No. GUS^+ Shoot Lines” value (E. grandis clone IP1; explant source shoot cluster, Geneticin 40 mg/l, 7 lines stained) was 4 and the “No. GUS^+ Calli” value ([1]; Geneticin 20 mg/l, regular shaded light, 5 calli stained) was 0. For the same molecule, the “No. GUS^+ Calli” value ([1]; Geneticin 30 mg/l, dark, 6 calli stained) was 4, the “No. GUS^+ Calli” value ([1]; Geneticin 30 mg/l, regular shaded light, 17 calli stained) was 13 and the “% GUS^+ Shoots” value ([2]; Geneticin 30 mg/l, pre-culture 1 day) was 37.9%. The “No. GUS^+ Shoot Lines” value ([2]; Geneticin 30 mg/l, pre-culture 1 day, 29 lines stained) was 11, the “% GUS^+ Shoots” value ([2]; Geneticin 30 mg/l, pre-culture 4 days) was 12.8% and the “No. GUS^+ Shoot Lines” value ([2]; Geneticin 30 mg/l, pre-culture 4 days, 39 lines stained) was 5. For the same molecule, the “% GUS^+ Shoots” value ([2]; Geneticin 40 mg/l, pre-culture 4 days) was 11.8%, the “No. GUS^+ Shoot Lines” value ([2]; Geneticin 40 mg/l, pre-culture 4 days, 68 lines stained) was 8 and the “% GUS^+ Shoots” value ([2]; Geneticin 50 mg/l, pre-culture 1 day) was 50%. For the same molecule, the “No. GUS^+ Shoot Lines” value ([2]; Geneticin 50 mg/l, pre-culture 1 day, 12 lines stained) was 6, the “% GUS^+ Shoots” value ([2]; Geneticin 50 mg/l, pre-culture 4 days) was 19.4% and the “No. GUS^+ Shoot Lines” value ([2]; Geneticin 50 mg/l, pre-culture 4 days, 31 lines stained) was 7. The “% GUS^+ Shoots” value ([2]; Geneticin 60 mg/l, pre-culture 4 days) was 50%, the “No. GUS^+ Shoot Lines” value ([2]; Geneticin 60 mg/l, pre-culture 4 days, 8 lines stained) was 4 and the “putative transgenic sublines in which stable transformation is verified” value ([3]; selection on Geneticin 15 mg/L, 12 sublines tested) was 100%.
In the case of `COC(=O)c1ccccc1S(=O)(=O)NC(=O)Nc1nc(C)cc(C)n1` [Oust], the “success as selective agent (stopping cell growth), FIG. 9” value [4] is reported as “successful as a selective agent at multiple concentrations only in the absence of casein hydrolysate” and the “putative transgenic sublines that were false positives” value ([3]; selection on 50 nM Oust, medium with casein hydrolysate) is reported as “Eighty”.
With `C/C(=C\CNc1ncnc2[nH]cnc12)CO` [Zeatin, zeatin] the “shoot induction, comparison of levels in two experiments” value (E. dunnii clone DUN00001; Table 5 experiments) was “zeatin at 5 mg/l is better than 10 mg/l” and the “shoot regeneration, initial screening of levels” value (E. dunnii clone DUN00001; zeatin 10, 1, and 0.1 mg/l with NAA 0.01, 0.1 and 1 mg/l) was “better results at 10 mg/l than at 1 mg/l or 0.1 mg/l”.
